Assay results reported in PMC9127750, “Structure-based design of CDC42 effector interaction inhibitors for the treatment of cancer” (Cell reports, 2022).

Tested on: WM3248 melanoma cells, 486 antibodies
Test: Reverse phase protein arrays (RPPA);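 as to RPPA ACC1.R.C: ratio of treated to vehicle (0 µM) normalized linear protein signal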;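 as to RPPA AMPK.a2 pS345.R.V: ratio of treated to vehicle (0 µM) normalized linear protein signal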;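 as to RPPA AMPKa pT172.R.C: ratio of treated to vehicle (0 µM) normalized linear protein signal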;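 as to RPPA ASNS.R.V: ratio of treated to vehicle (0 µM) normalized linear protein signal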;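 as to RPPA Akt1.R.V: ratio of treated to vehicle (0 µM) normalized linear protein signal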;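 as to RPPA Atg5.R.C: ratio of treated to vehicle (0 µM) normalized linear protein signal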;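 as to RPPA Bim.R.V: ratio of treated to vehicle (0 µM) normalized linear protein signal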
Type: cell-based, Human
Settings: 10 uM
Text: Pellets were snap frozen in liquid nitrogen and shipped to MD Anderson Cancer Center core RPPA facility for RPPA analysis (Table S5). Three biological replicates for each sample were generated.
Nomenclatures on the RPPA heatmaps: name_of_antibody.species_of_antibody.status_of_antibody. V - antibody validated; C - validation of antibody in progress; Q - antibody nonspecific; E – under evaluation; antibodies raised in M - mouse, G - goat, R - rabbit, or T - rat.

CN(C)c1cccc(Nc2cc(-c3ccccc3)nc(C3CCNCC3)n2)c1 [ARN22089, N1,N1-dimethyl-N3-(6-phenyl-2-(piperidin-4-yl)pyrimidin-4-yl)benzene-1,3-diamine]
RPPA B7.H4.R.C (10W1): 1.035
RPPA B.Raf.R.C (10W1): 0.916
RPPA B.Raf_pS445.R.V (10W1): 0.953
RPPA BAP1.M.V (10W1): 0.957
RPPA BCL2A1.R.V (10W1): 1.947
RPPA BMK1.Erk5_pT218_Y220.R.V (10W1): 0.926
RPPA BRCA1.M.C (10W1): 1.059
RPPA BRD4.R.V (10W1): 1.134
RPPA Bad_pS112.R.V (10W1): 1.118
RPPA Bax.R.V (10W1): 1.004
RPPA Bcl2.R.C (10W1): 1.048
RPPA Bcl.xL.R.V (10W1): 1.112
RPPA Beclin.R.C (10W1): 1.064
RPPA Bim.R.V (10W1): 1.024
RPPA X4E.BP1.R.V (10W1): 0.716
RPPA X4E.BP1_pS65.R.V (10W1): 0.893
RPPA X4E.BP1_pT37_T46.R.V (10W1): 0.934
RPPA X14.3.3.zeta.R.V (10W1): 1.029
RPPA X14.3.3βR.V (10W1): 1.012
RPPA X14.3.3εM.C (10W1): 0.955
RPPA X53BP1.R.V (10W1): 0.984
RPPA b.Catenin.R.V (10W1): 0.868
RPPA b.Catenin_pT41_S45.R.V (10W1): 1.019
RPPA c.Abl.R.V (10W1): 1.140
RPPA c.Abl_pY412.R.C (10W1): 0.995
RPPA A.Raf_pS299.R.C (10W3): 0.989
RPPA ACC1.R.C (10W3): 0.761
RPPA ACC_pS79.R.V (10W3): 0.652
RPPA ACLY_pS455.R.V (10W3): 1.060
RPPA ACSL1.R.V (10W3): 0.743
RPPA ACVRL1.R.C (10W3): 1.047
RPPA ADAR1.M.V (10W3): 0.974
RPPA AMPK.a2_pS345.R.V (10W3): 1.012
RPPA AMPKa.R.C (10W3): 0.993
RPPA AMPKa_pT172.R.C (10W3): 0.770
RPPA AR.R.V (10W3): 0.980
RPPA ARID1A.R.C (10W3): 1.025
RPPA ASNS.R.V (10W3): 1.126
RPPA ATM.R.V (10W3): 0.864
RPPA ATM_pS1981.R.V (10W3): 1.016
RPPA ATP5A.M.C (10W3): 0.859
RPPA ATP5H.R.V (10W3): 1.047
RPPA ATR.R.V (10W3): 0.992
RPPA ATRX.R.C (10W3): 0.863
RPPA ATR_pS428.R.C (10W3): 1.076
RPPA AceCS1.R.V (10W3): 0.950
RPPA Akt1.R.V (10W3): 1.034
RPPA Akt1_pS473.R.V (10W3): 1.099
RPPA Akt2.R.V (10W3): 0.982
RPPA Akt2_pS474.R.C (10W3): 1.062
RPPA Akt.R.V (10W3): 0.811
RPPA Akt_pS473.R.V (10W3): 1.223
RPPA Akt_pT308.R.V (10W3): 1.196
RPPA Ambra1_pS52.R.C (10W3): 0.979
RPPA Annexin.I.M.V (10W3): 0.896
RPPA Annexin.VII.M.V (10W3): 0.983
RPPA Atg5.R.C (10W3): 0.843
RPPA Atg7.R.V (10W3): 0.986
RPPA Aurora.A.R.C (10W3): 1.109
RPPA Aurora.ABC_pT288_pT232_pT198.R.C (10W3): 0.933
RPPA Aurora.B.R.V (10W3): 1.003
RPPA Axl.R.V (10W3): 0.953
RPPA B7.H3.R.C (10W3): 1.031
RPPA B.Raf_pS445.R.V (10W3): 1.006
RPPA BAP1.M.V (10W3): 1.063
RPPA BCL2A1.R.V (10W3): 1.172
RPPA BMK1.Erk5_pT218_Y220.R.V (10W3): 0.935
RPPA BRCA1.M.C (10W3): 0.989
RPPA BRD4.R.V (10W3): 0.839
RPPA Bad_pS112.R.V (10W3): 1.059
RPPA Bak.R.C (10W3): 1.018
RPPA Bax.R.V (10W3): 0.972
RPPA Bcl.xL.R.V (10W3): 1.015
RPPA Beclin.R.C (10W3): 0.995
RPPA BiP.GRP78.M.C (10W3): 1.013
RPPA Bid.R.C (10W3): 1.021
RPPA Bim.R.V (10W3): 0.900
RPPA X4E.BP1.R.V (10W3): 0.590
RPPA X4E.BP1_pS65.R.V (10W3): 1.148
RPPA X4E.BP1_pT37_T46.R.V (10W3): 1.133
RPPA X14.3.3.zeta.R.V (10W3): 1.033
RPPA X14.3.3βR.V (10W3): 1.026
RPPA X14.3.3εM.C (10W3): 1.009
RPPA X53BP1.R.V (10W3): 0.920
RPPA b.Actin.R.C (10W3): 1.024
RPPA b.Catenin.R.V (10W3): 0.914
RPPA b.Catenin_pT41_S45.R.V (10W3): 1.012
RPPA c.Abl.R.V (10W3): 1.061
RPPA c.Abl_pY412.R.C (10W3): 0.963
RPPA c.IAP2.R.C (10W3): 1.023
C.Raf.R.C RPPA level (Average): 0.940
C.Raf_pS338.R.V RPPA level (Average): 0.978
CA9.R.C RPPA level (Average): 0.980
CD2.M.C RPPA level (Average): 1.035
CD4.R.V RPPA level (Average): 0.935
CD5.M.C RPPA level (Average): 1.029
CD20.R.C RPPA level (Average): 1.026
CD26.R.V RPPA level (Average): 0.948
CD29.M.V RPPA level (Average): 1.016
CD31.M.V RPPA level (Average): 1.034
CD38.R.C RPPA level (Average): 0.977
CD44.R.C RPPA level (Average): 1.010
CD45.M.V RPPA level (Average): 1.023
CD49b.M.V RPPA level (Average): 1.014
CD68.M.C RPPA level (Average): 1.034
CD134.R.V RPPA level (Average): 1.019
CD171.M.V RPPA level (Average): 0.898
CDK1_pT14.R.C RPPA level (Average): 0.932
CDK9.R.V RPPA level (Average): 1.014
CDT1.R.V RPPA level (Average): 1.048
CENP.A.R.V RPPA level (Average): 1.017
CHD1L.R.V RPPA level (Average): 1.034
CIITA.R.C RPPA level (Average): 1.018
COG3.R.V RPPA level (Average): 1.062
CRABP1.R.C RPPA level (Average): 1.050
CREB_pS133.R.C RPPA level (Average): 1.130
Calnexin.R.V RPPA level (Average): 1.046
Caspase.3.cleaved.R.C RPPA level (Average): 0.944
Caspase.7.cleaved..R.C RPPA level (Average): 0.997
Caspase.8.M.Q RPPA level (Average): 0.957
Caspase.8.cleaved.R.C RPPA level (Average): 0.988
Caveolin.1.R.V RPPA level (Average): 0.941
Cdc6.R.V RPPA level (Average): 0.971
Cdc42.R.C RPPA level (Average): 0.986
Chk1.M.C RPPA level (Average): 1.082
Chk1_pS345.R.C RPPA level (Average): 0.961
Chk2.M.V RPPA level (Average): 1.026
Chk2_pT68.R.C RPPA level (Average): 1.020
Claudin.7.R.V RPPA level (Average): 1.203
Collagen.VI.R.V RPPA level (Average): 1.025
Complex.II.Subunit.M.V RPPA level (Average): 1.017
Connexin.43.R.C RPPA level (Average): 1.031
Coup.TFII.R.C RPPA level (Average): 0.889
Cox2.R.C RPPA level (Average): 0.972
Cox.IV.R.V RPPA level (Average): 0.954
Creb.R.C RPPA level (Average): 0.986
CtIP.R.V RPPA level (Average): 0.940
Cyclin.B1.R.V RPPA level (Average): 0.940
Cyclin.D1.R.C RPPA level (Average): 1.061
Cyclin.D3.M.V RPPA level (Average): 1.058
Cyclin.E1.R.V RPPA level (Average): 1.006
Cyclophilin.F.M.V RPPA level (Average): 0.965
D.a.Tubulin.R.V RPPA level (Average): 0.976
DAPK2.R.C RPPA level (Average): 0.971
DDB.1.R.V RPPA level (Average): 0.857
DDR1.R.V RPPA level (Average): 1.028
DDR1_pY513.R.C RPPA level (Average): 1.051
DJ1.R.V RPPA level (Average): 1.016
DM.Histone.H3.R.V RPPA level (Average): 0.928
DNA.Ligase.IV.R.C RPPA level (Average): 1.003
DNA_POLG.R.V RPPA level (Average): 1.013
RPPA A.Raf.R.V (Average): 0.917
RPPA ACC1.R.C (Average): 0.919
RPPA ACC_pS79.R.V (Average): 0.878
RPPA ACLY_pS455.R.V (Average): 1.125
RPPA ACSL1.R.V (Average): 0.971
RPPA ADAR1.M.V (Average): 1.083
RPPA ALKBH5.R.V (Average): 1.027
RPPA AMPK.a2_pS345.R.V (Average): 1.001
RPPA AMPKa.R.C (Average): 0.982
RPPA AMPKa_pT172.R.C (Average): 1.263
RPPA AR.R.V (Average): 0.922
RPPA ASNS.R.V (Average): 0.960
